Laboratory results taken from patent US10065990B2, “Cyclic peptide compound, and preparation method, pharmaceutical composition and use thereof” (HANGZHOU GUANYU BIO-MEDICAL CO., LTD, priority 2013, dated 2018).
Where two headings read alike, the source gives them in different places.

Tests used:
HDAC7 = molecular target: T1, HDAC7 (Homo sapiens, UniProt Q8WUI4); assay: HDAC biochemical activity measurement (fluorescent substrate deacetylation);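 note: fluorogenic deacetylation assay using acetyl-lysine substrate at 20 µM, enzyme and compound incubated 30 min at 37 °C, then developer added, fluorescence read at 360/460 nm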; details: HDAC7; 37° C. 30 minutes
T1 sequence (Q8WUI4 1-952): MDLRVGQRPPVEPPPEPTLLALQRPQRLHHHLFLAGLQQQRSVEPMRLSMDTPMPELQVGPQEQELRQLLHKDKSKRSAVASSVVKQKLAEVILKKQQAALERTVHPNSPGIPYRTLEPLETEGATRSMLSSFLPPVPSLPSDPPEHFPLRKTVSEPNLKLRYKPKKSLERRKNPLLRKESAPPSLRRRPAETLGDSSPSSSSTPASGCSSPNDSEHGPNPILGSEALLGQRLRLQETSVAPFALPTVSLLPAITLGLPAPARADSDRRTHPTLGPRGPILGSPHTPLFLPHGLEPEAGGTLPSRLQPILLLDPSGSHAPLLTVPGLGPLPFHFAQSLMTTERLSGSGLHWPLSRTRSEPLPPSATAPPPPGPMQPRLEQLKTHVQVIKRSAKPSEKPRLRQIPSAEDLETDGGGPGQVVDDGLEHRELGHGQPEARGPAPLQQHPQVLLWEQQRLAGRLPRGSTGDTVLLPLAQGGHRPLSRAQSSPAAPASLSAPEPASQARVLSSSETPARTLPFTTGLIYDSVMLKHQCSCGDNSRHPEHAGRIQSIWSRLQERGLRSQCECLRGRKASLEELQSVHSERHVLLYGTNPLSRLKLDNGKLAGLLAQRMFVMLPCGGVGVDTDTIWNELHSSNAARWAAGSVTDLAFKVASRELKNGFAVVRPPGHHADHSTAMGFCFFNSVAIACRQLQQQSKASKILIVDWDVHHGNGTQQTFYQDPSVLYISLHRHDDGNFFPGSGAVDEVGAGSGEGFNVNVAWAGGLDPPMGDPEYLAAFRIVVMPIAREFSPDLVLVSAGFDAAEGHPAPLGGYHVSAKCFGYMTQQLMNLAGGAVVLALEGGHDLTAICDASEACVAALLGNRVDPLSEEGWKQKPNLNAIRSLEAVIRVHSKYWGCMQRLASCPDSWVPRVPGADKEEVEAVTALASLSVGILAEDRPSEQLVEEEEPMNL
Procedure: The chemical activity of the compound is determined according to the degree of deacetylation inhibition of the HDAC enzyme. This experiment measured the degree of deacetylation related to tumor proliferation and metastasis of HDAC1, HDAC2, HDAC3, HDAC8, HDAC11 five subtypes HDAC enzymes. After the substrate containing an acetylated lysine side chain and HDAC enzyme are labeled with a fluorescent label, the fluorescent substrate is de acetyl. The fluorescent labeled substrate is cleaved by the enzyme, and the fluorescent substance is released, which generates 460 nm emission light under the excitation of 360 nm light.
HDAC substrate was diluted with reaction buffer to 200M (reaction concentration of 20M), the HDAC enzyme was diluted to the appropriate concentration, then added different concentrations of the test compounds and acted at 37° C. 30 minutes, and then added the same volume of 2-times concentration substrate developing solution (developer), incubated at room temperature for 15 minutes. Finally, the last reading measured with a microplate plate reader, excitation light was 360 nm, the emitted light was 460 nm, data processing software was Prime 4, and the results are shown in Table 1.

[1] = test system: A549 (human lung cancer cells); assay: MTT cancer cell growth inhibition; format: cell-based; details: A549 cells, MTT, 72 hours incubation, read-out: GI50 A54
Summary of the method: (§1)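 Tumour cells in 10% FBS-supplemented DMEM or RPMI 1640 are plated at 1500 per well, dosed next day with compound (10^−5 through 10^−10 M, final) and kept 72 h. MTT is added for 4 h; dissolved formazan is measured at 570 nm and GI50 determined.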

[2] = test system: BGC-823 (human gastric cancer cells); assay: MTT cancer cell growth inhibition; format: cell-based; details: BGC-823 cells, MTT, 72 hours incubation, read-out: GI50 BG
Summary of the method: as §1

[3] = test system: Bel-7402 (human hepatoma cells); assay: MTT cancer cell growth inhibition; format: cell-based; details: MTT, 72 hours incubation, Bel-7402 cells, read-out: GI50 Bel-7402
Summary of the method: as §1

[4] = test system: DU145 (human prostate cancer cells); assay: MTT cancer cell growth inhibition; format: cell-based; details: DU145 cells, MTT, 72 hours incubation, read-out: GI50 Du1
Summary of the method: as §1

[5] = test system: H1975 (non-small cell lung adenocarcinoma); assay: MTT cancer cell growth inhibition; format: cell-based; details: MTT, 72 hours incubation, H1975 cells, read-out: GI50 H1975
Summary of the method: as §1

[6] = test system: HCC827 (human non-small cell lung cancer cells); assay: MTT cancer cell growth inhibition; format: cell-based; details: MTT, 72 hours incubation, HCC827 cells, read-out: GI50 HCC827
Summary of the method: as §1

[7] = test system: HT1080 (human fibrosarcoma cells); assay: MTT cancer cell growth inhibition; format: cell-based; details: HT1080 cells, MTT, 72 hours incubation, read-out: GI50 HT1
Summary of the method: as §1

[8] = test system: Hela (human cervical cancer cells); assay: MTT cancer cell growth inhibition; format: cell-based; details: Hela cells, MTT, 72 hours incubation, read-out: GI50 Hela
Summary of the method: as §1

[9] = test system: Huh-7 (human hepatoma cells); assay: MTT cancer cell growth inhibition; format: cell-based; details: MTT, 72 hours incubation, Huh-7 cells, read-out: GI50 Huh-7
Summary of the method: as §1

[10] = test system: K562 (human leukemia cells); assay: MTT cancer cell growth inhibition; format: cell-based; details: MTT, 72 hours incubation, K562 cells, read-out: GI50 K562
Summary of the method: as §1

[11] = test system: KBM-5 (human chronic myelogenous leukemia); assay: MTT cancer cell growth inhibition; format: cell-based; details: MTT, 72 hours incubation, KBM-5 cells, read-out: GI50 KBM-5
Summary of the method: as §1

[12] = test system: KBM5-T315I (human chronic myelogenous leukemia); assay: MTT cancer cell growth inhibition; format: cell-based; details: MTT, 72 hours incubation, KBM5-T315I cells, read-out: GI50 KBM5-T315I
Summary of the method: as §1

[13] = test system: MCF-7 (human breast cancer cells); assay: MTT cancer cell growth inhibition; format: cell-based; details: MCF-7 cells, 72 hours incubation, read-out: GI50 MCF
Summary of the method: as §1

[14] = test system: MDA-MB-231 (breast cancer cells); assay: MTT cancer cell growth inhibition; format: cell-based
Summary of the method: as §1

[15] = test system: MOLT-4 (human acute lymphoblastic leukemia cells); assay: MTT cancer cell growth inhibition; format: cell-based; details: MOLT-4 cells, MTT, 72 hours incubation, read-out: GI50 Mol
Summary of the method: as §1

[16] = test system: N-87 (human gastric cancer cells); assay: MTT cancer cell growth inhibition; format: cell-based; details: MTT, 72 hours incubation, N-87 cells, read-out: GI50 N-87
Summary of the method: as §1

[17] = test system: PANC-1 (Pac-1, human pancreatic cancer cells); assay: MTT cancer cell growth inhibition; format: cell-based; details: PANC-1 cells, MTT, 72 hours incubation, read-out: GI50 PAN
Summary of the method: as §1

[18] = test system: SGC-7901 (human gastric cancer cells); assay: MTT cancer cell growth inhibition; format: cell-based; details: MTT, 72 hours incubation, SGC-7901 cells, read-out: GI50 SGC-7901
Summary of the method: as §1

[19] = test system: U937 (human leukemia cells); assay: MTT cancer cell growth inhibition; format: cell-based; details: U937 cells, MTT, 72 hours incubation, read-out: GI50 U93
Summary of the method: as §1

[20] = test system: lncap (prostate cancer cells); assay: MTT cancer cell growth inhibition; format: cell-based; details: lncap cells, MTT, 72 hours incubation, read-out: GI50 lnca
Summary of the method: as §1

[21] = Homo sapiens, MDA-MB-231, 72 h, read-out: GI50 MDA-MB-231, MTT, 72 hours incubation, MDA-MB-231 cells

SMILES | IC50 HDAC7 (HDAC7) | GI50 ([1]; Homo sapiens, A549, 72 h) [µM] | GI50 ([2]; Homo sapiens, BGC-823, 72 h) [µM] | GI50 ([3]; Homo sapiens, Bel-7402, 72 h) [µM] | GI50 ([4]; Homo sapiens, DU-145, 72 h) [µM] | GI50 ([5]; Homo sapiens, NCI-H1975, 72 h) [µM] | GI50 ([6]; Homo sapiens, HCC827, 72 h) [µM] | GI50 ([7]; Homo sapiens, HT-1080, 72 h) [µM] | GI50 ([8]; Homo sapiens, HeLa, 72 h) [µM] | GI50 ([9]; Homo sapiens, Huh-7, 72 h) [µM] | GI50 ([10]; Homo sapiens, K562, 72 h) [µM] | GI50 ([11]; Homo sapiens, KBM5, 72 h) [µM] | GI50 ([12]; Homo sapiens, 72 h) [µM] | GI50 ([13]; Homo sapiens, MCF7, 72 h) [µM] | GI50 [14, 21] [µM] | GI50 ([15]; Homo sapiens, MOLT-4, 72 h) [µM] | GI50 ([16]; Homo sapiens, 72 h) [µM] | GI50 ([17]; Homo sapiens, PANC-1, 72 h) [µM] | GI50 ([18]; Homo sapiens, SGC-7901, 72 h) [µM] | GI50 ([19]; Homo sapiens, U-937, 72 h) [µM] | other results
C=C1NC(=O)c2ccc(SC)c(n2)CNC(=O)C[C@@H](/C=C/CCSC(C)=O)OC(=O)[C@H](C)NC1=O [Compound 212] | no activity | 0.04 | 0.06 | 0.039 | 0.03 | 0.062 | 0.048 | 0.03 | 0.02 | 0.057 | 0.035 | 0.069 | 0.037 | 0.07 | 0.097 | 0.07 | 0.035 | 0.05 | 0.084 | 0.06 | GI50 ([20]; Homo sapiens, LNCaP, 72 h): 0.08 µM
C/C=C1\NC(=O)c2cc(SC)cc(n2)CNC(=O)C[C@@H](/C=C/CCSC(C)=O)OC(=O)[C@H](C)NC1=O [Compound 214] | no activity |  |  |  |  |  |  |  |  |  |  |  |  |  |  |  |  |  |  |  | GI50 [1]: 0.09 µM; GI50 [2]: 0.02 µM; GI50 [3]: 0.071 µM; GI50 [4]: 0.04 µM; GI50 [5]: 0.063 µM; GI50 [6]: 0.035 µM; GI50 [7]: 0.04 µM; GI50 [8]: 0.06 µM; GI50 [9]: 0.041 µM; GI50 [10]: 0.071 µM; GI50 [11]: 0.019 µM; GI50 [12]: 0.073 µM; GI50 [13]: 0.05 µM; GI50 ([14]; read-out: GI50 MDA-MB-231, MTT, 72 hours incubation, MDA-MB-231 cells): 0.015 µM; GI50 [15]: 0.05 µM; GI50 [16]: 0.095 µM; GI50 [17]: 0.04 µM; GI50 [18]: 0.068 µM; GI50 [19]: 0.05 µM; GI50 [20]: 0.11 µM
C/C=C1\NC(=O)c2nc(cc(SC)n2)CNC(=O)C[C@@H](/C=C/CCSC(C)=O)OC(=O)[C@H](C)NC1=O [Compound 218] | no activity | 0.03 | 0.06 | 0.062 | 0.05 | 0.038 | 0.037 | 0.02 | 0.08 | 0.021 | 0.036 | 0.021 | 0.043 | 0.04 | 0.027 | 0.09 | 0.065 | 0.05 | 0.053 | 0.06 | GI50 ([20]; Homo sapiens, LNCaP, 72 h): 0.05 µM
